Assay results: patent US12522575B2, “2-diarylmethyl-4-aminotetrahydropyran derivatives and related compounds as anticancer, antiinflammatory, antifibrotic and neuroprotective agents” (Atux Iskay LLC, priority 2021, dated 2026)

Legend:
Type in all cases: cell-based
[1] = test system: D425 medulloblastoma cells; test: D425 cell viability / proliferation (CellTiter-Glo); conditions: Medulloblastoma cell; 48 hours treatment, CellTiter-Glo; read-out: IC50 for D425 cell growth
Protocol: D425 medulloblastoma cells were purchased from SigmaAldrich. D425 meduloblastoma cells were cultured in improved Dulbecco's modified Eagle's medium (DMEM) Richter's modification supplemented with 20% fetal bovine serum and 1% Penicillin-streptomycin. Incubation was performed at 37° C. and 5% CO2.
D425 cells were seeded at 3000-3500 cells/90 ul growth medium per well on 96-well tissue culture plates. Cells were incubated overnight to allow them to recover. Next day cells were treated with tested compounds and incubated for 48 hours.
Cell Proliferation assays in triplicate were performed at each concentration. Compounds test range was 1-30 μM (0, 5, 10, 15, 20, 25, and 30). The compounds were dissolved in DMSO. A series of dilutions were made in 1% DMSO in growth medium so that the final concentration of DMSO is 0.1% in all of treatments.
After treatment, cells were allowed to equilibrate at room temperature for one hour. Cell proliferation was measured by Luminescence quantification using Promega CellTiter-Glo Luminescent Cell Viability Assay. To perform the assay, 90 ul of Celltiter-Glo substrate was added to each well, plates were shake for 2 minutes and allowed to equilibrate for 10 minutes at room temperature. Luminescence intensity was measured using the Spectramax i3x plate reader.
(§1) The Luminescence intensity data were analyzed using the computer software Graphpad Prism. In the absence of the compound, the luminescence intensity (Lt) in each data set was defined as 100% cell viability. The percent cell in the presence of each compound was calculated according to the following equation: % Cell=L/Lt, were L=the luminescence intensity in the presence of the compound.
The values of % cell versus a series of compound concentrations (0, 5, 10, 15, 20, 25, and 30 μM) were then plotted using Nonlinear regression analysis of Sigmoidal dose-response curve. IC50 value was determined by the concentration causing a half-maximal percent activity.

A172 glioblastoma cells = test: A172 cell viability / proliferation (CellTiter-Glo); conditions: Homo sapiens, A 172, 48-72 hours treatment, read-out: IC50 for A172 cell growth
Protocol: (§2) A172 glioblastoma cells were cultured in Dulbecco's modified Eagle's medium (DMEM) supplemented with 10% fetal bovine serum and 1% Penicillin-streptomycin. Incubation was performed at 37° C. and 5% CO2.
A172 cells were seeded at 3000-3500 cells/90 μL growth medium per well on 96-well tissue culture plates. Cells were incubated overnight to allow them to recover and reattach. Next day cells were treated with tested compounds and incubated for 48-72 hours.
Cell Proliferation assays in triplicate were performed at each concentration. Compounds test range was 1-30 µM (0, 5, 10, 15, 20, 25, and 30). The compounds were dissolved in DMSO. […]
After treatment, cells were allowed to equilibrate at room temperature for 1/2 to one hour. Cell proliferation was measured by Luminescence quantification using Promega CellTiter-Glo Luminescent Cell Viability Assay. […] Luminescence intensity was measured using the Spectramax i3× plate reader.
as §1, with “compound. […]” for “compound.”

[2] = test system: phosphatase activity in ApoE transfected A172 glioblastoma cells; test: Cellular in vitro phosphatase activation assay (Malachite Green) in ApoE transfected A172 cells; conditions: 24 hours
Protocol: Cellular in vitro phosphatase activation assay was performed using the method of Theendakara et al, Molecular and Cellular Neuroscience, 83 (2017), pages 83-91 which is described below:
as §2
A172 cells were seeded at 5×10^5 cells/2.5 ml growth medium (without antibiotics) per well on 6-well tissue culture plates. Cells were incubated overnight to allow them to recover and reattach. […]
After 24 hrs, cells were washed twice with imidazole buffer and lysed using NP-40 Lysis buffer. […] The amount of phosphate release in the assay was determined by measuring absorbance at 620 nm using the Spectramax i3x plate reader.
The absorbance intensity data were analyzed using the computer software Graphpad Prism. The phosphate concentration for each sample was determined from the standard curve using phosphate standard concentrations. In order to compare samples, the first set (column A) were there was no transfection performed and no compound added, was designated a baseline; the absorbance measurement in this column was set as 100% phosphatase activity.

[3] = test system: lung fibroblasts from healthy subjects; test: Fibrosis associated gene expression in lung fibroblasts; conditions: 1 μM, 24 hours, TGF-β (FIG. 1)
Protocol: Each dot represents cells from a different subject. Student t-tests or 2-way ANOVA were performed and a p-value […] was denoted as * when comparing to the vehicle treated groups or ** when comparing to the TGF-β vehicle groups.
Compounds of the present invention activate PP2A responses in fibroblasts from healthy subjects. Lung fibroblasts from 6 subjects were stimulated with 1 micromolar of example compounds for 24 hours.

ERK and JNK = ERK and JNK signaling in lung fibroblasts (immunoblot, densitometry); conditions: 1 μM, 24 hours, lung fibroblasts (FIGS. 2 and 3)
Protocol: Each dot represents cells from a different subject. Student t-tests or 2-way ANOVA were performed and a p-value […] was denoted as ** when comparing between phosphorylated and unphosphorylated groups.
Compounds of the present invention reactivate PP2A responses in fibroblasts from healthy and IPF subjects.

PP2A = PP2A responses in lung fibroblasts; conditions: 1 μM, 24 hours
Protocol: Each dot represents cells from a different subject. Student t-tests or 2-way ANOVA were performed and a p-value […] was denoted as * when comparing to the vehicle treated groups.
Each dot represents cells from a different subject. Student t-tests were performed and a p-value […] was denoted as * when comparing non-smoker (NS) to IPF vehicle groups or ** when comparing vehicle IPF to compound IPF groups. Left plot: cell source-healthy non-smoker; Middle plot: cell source—IPF; Right: cell source—IPF.
IPF fibroblasts were exposed to v or 1 micromolar of the ATUX compounds media for 24 hours and increase in PP2A activity is shown in right hand group. PP2A activity in vehicle treated fibroblasts from healthy nonsmokers is shown for comparison in the left hand group.

Question: For O=S(=O)(NC1CCOC(C2c3ccc(F)cc3CCc3cc(F)ccc32)C1)c1ccc(OC(F)(F)F)cc1 (stereo not shown) [Example 6, N-(2-(2,8-difluoro-10,11-dihydro-5H-dibenzo[a,d][7]annulen-5-yl)tetrahydro-2H-pyran-4-yl)-4-(trifluoromethoxy)benzenesulfonamide], which IC50 [1] is on record?
Answer: 5.8 µM

Question: What about the IC50 (A172 glioblastoma cells) of the same compound?
Answer: 9.9 µM

Question: What about the “% increase from ApoE transfected cell at 5 μM test compound concentration” value [2] of the same compound?
Answer: 6.8%

Question: And the pro-fibrotic gene expression [3]?
Answer: suppression of pro-fibrotic gene expression

Question: And the “ERK and JNK signaling” value (ERK and JNK)?
Answer: reduced ERK and JNK signaling

Question: And the “PP2A responses in lung fibroblasts from healthy subjects” value (PP2A; vs vehicle (FIG. 4))?
Answer: reactivation of PP2A responses

Question: What about the “PP2A responses in lung fibroblasts from idiopathic pulmonary fibrosis (IPF)” value (PP2A; vs vehicle IPF (FIG. 5)) of the same compound?
Answer: reactivation of PP2A responses
